Measurements reported in article PMC12072186, “A Novel Small Molecule Enhances Stable Dopamine Delivery to the Brain in Models of Parkinson’s Disease” (International Journal of Molecular Sciences, 2025).
“Also recorded” adds a separate entry of the source. Where two headings read alike, the source gives them in different places.

What was measured:
TgA53T mice = assay: Rotarod test in TgA53T mice; type: in vivo, mouse
microglia (IBA1) = assay: IBA1 immunohistochemistry of microglia; type: in vivo, mouse; conditions: young and old TgA53T mice, vs DMSO
Excerpt: (§1) Neuroinflammation is one of the most important pathogeneses in PD in addition to alpha-synuclein aggregation. To examine the effects of Pegasus on glial cell activation, we performed immunohistochemistry of astrocyte and microglia from the brains of treated vs. untreated young (6–7-month-old) and old (12–13-month-old) TgA53T mice.

human alpha-synuclein [1] = assay: Western blot of soluble brain extracts for alpha-synuclein; type: in vivo, mouse; conditions: young TgA53T mice (6–7 months old), vs D5 and DMSO
Procedure: (§2) The concentration of CNS alpha-synuclein via ELISA was reduced in the brain lysates of old (11–12-month-old) TgA53T mice treated with Pegasus compared to DMSO-treated controls (Figure 5I).
To extract the soluble proteins, whole brain tissues, which excluded the olfactory bulb, cerebellum, and spinal cord, were isolated and homogenized in 1 × STEN buffer (50 mM Tris (pH 7.6), 150 mM NaCl, 2 mM EDTA, 0.2% NP-40, 0.2% BSA, 20 mM PMSF, and protease cocktail inhibitor). The proteins were quantified and normalized for WB (and ELISA) on 4–12% Criterion™ XT Bis-Tris Protein Gel (Cat No: 3450125, Bio-rad, Hercules, CA, USA). Beta-actin (β-actin) was probed (1:3000) with monoclonal antibody (Cat No: MAB1501R, Emdmillipore, Danvers, MA, USA). Human alpha-synuclein was probed (1:4000) with monoclonal antibody (Cat No: AHB0261, Thermo Fisher, Waltham, MA, USA). Human oligomeric alpha-synuclein was probed (1:500) with anti-alpha-synuclein oligomer-specific syn33 antibody (Cat No: ABN2265, Sigma-Aldrich, St. Louis, MO, USA). WBs were quantified by densitometry using Quantity One 4.6.3 software (Bio Rad, Hercules, CA, USA) and Image J version 1.54m.

astrocyte (GFAP) = assay: GFAP immunohistochemistry of astrocytes; type: in vivo, mouse
Procedure: as §1
Animals were deeply anesthetized with a mixture of Xylazine and Ketamine (8:80 mg/kg), washed with normal saline for 1 min, and then perfused with 4% paraformaldehyde (PFA) for 15 min. The brains were dissected out and immediately stored in 4% PFA for 24 h at 4 °C, and then transferred to 30% sucrose at 4 °C for 48 h. The brains were cut using a cryostat microtome into 20 µm thick coronal sections and stored at −20 °C. Staining for tyrosine hydroxylase (TH) was probed with anti-tyrosine hydroxylase antibody (Cat No: AB152, Sigma-Aldrich, St. Louis, MO, USA). GFAP (glial fibrillary acidic protein) was stained with anti-GFAP monoclonal antibody (Cat No:MS1376P1, Fisher Scientific, Newington, NH, USA). […] TH^+ cells were counted in a stereology-like manner across multiple visual fields (typically 20 fields) in a single animal, and the same procedure was repeated on several animals to obtain the best approximation of TH staining.

[2] = system: DA and its metabolite HVA; assay: DA and HVA ELISA on serum and brain extracts of TgA53T mice; type: in vivo, mouse; conditions: 50 mg/kg, 12–13-month-old TgA53T mice, vs DMSO
alpha-synuclein = system: alpha-synuclein; parameters: method as in PMID 38991155; conditions: cited from earlier work
caspase-3 activity = assay: Tissue toxicity via caspase-3 activity assay; type: in vivo; conditions: liver, brain, kidney, lung, spleen, heart, serum, small intestine; young TgA53T mice; vs naïve, DMSO and D5
Procedure: We further verified cell death via caspase-3 activity assays of the liver, brain, kidney, lung, spleen, heart, serum, and small intestine in young TgA53T mice (6–7 months old).
Tissue toxicity was assessed in young (6–7-month-old) and old (12–13-month-old) A53T mice. The mice received daily i.p. escalating doses of Pegasus or control D5 (tetracycline derivative with no DA) vs. DMSO of 10, 25, 50, and 100 mg/kg for 4 days with each dose up to 16 days, and tissues were analyzed via caspase-3 activity. The caspase-3 activity assay (EnzChek® Invitrogen, Waltham, MA, USA) was conducted according to manufacturer’s protocols as we previously described.

[3] = Pharmacokinetics after single i.p. injection, serum and brain (UHPLC-MS/MS); type: in vivo, mouse; conditions: for Kp: intraperitoneal; for half-life / AUC(0-inf): ip
human alpha-synuclein [4] = assay: Human alpha-synuclein ELISA of brain lysates; type: in vivo, mouse; conditions: brain lysates of old (11–12-month-old) TgA53T mice, vs DMSO
Procedure: as §2
The levels of DA and its metabolite HVA were measured using a commercially available ELISA (Cat No. MBS269234 and Cat# MBS1601074, MyBiosource, San Diego, CA, USA) on serum and brain tissue soluble extracts. Human alpha-synuclein was measured via a human-specific ELISA (Cat# 448607, BioLegend, San Diego, CA, USA) according to the manufacturer’s protocol.

C[C@H]1c2ccc(NC(=O)CCC(=O)NCCc3ccc(O)c(O)c3)c(O)c2C(=O)C2=C(O)[C@]3(O)C(=O)C(C(N)=O)=C(O)CC3[C@@H](O)C21 (stereo partly shown) [Pegasus]
Duration of improved Rotarod motor performance (TgA53T mice; 50 mg/kg for 3 weeks, TgA53T mice): up to 6.5 h
Rotarod motor performance (TgA53T mice; 1–2 h post-injection, 50 mg/kg i.p. daily, 12–13 months old TgA53T mice, vs DMSO): significantly improves motor performance
Rotarod motor behavior (TgA53T mice; 2–3 h, 3–4 h and up to 5–6.5 h post-injection, 50 mg/kg i.p. daily, vs DMSO): continues to improve motor behavior
IBA1 staining in the hippocampus (microglia (IBA1)): No differences in IBA1 staining
Monomeric alpha-synuclein level (WB) (human alpha-synuclein [1]): significant decreases
Oligomeric alpha-synuclein level (WB) (human alpha-synuclein [1]): significant decreases
GFAP staining in other brain regions (astrocyte (GFAP); including the SN and cortex): not appreciably different
GFAP astrocyte reactivity in the hippocampus (astrocyte (GFAP); young (6–7-month-old) TgA53T mice, 50 mg/kg i.p., vs DMSO): significant reduction in astrocyte reactivity
Concentration of DA in the brain [2]: significantly increases
Concentration of DA in the serum [2]: significantly increases
Concentration of HVA in the brain [2]: significantly increases
Concentration of HVA in the serum [2]: though not HVA in the serum
Protective effect on alpha-synuclein in vitro (alpha-synuclein): prevention of alpha-synuclein misfolding
Caspase-3 activity in tissues (caspase-3 activity): no apparent toxicity in organs; also recorded: no significant changes in caspase-3 activity
Kp ([3]; C57BL/6 (mouse), Sprague Dawley (rat), mouse and rat brain, read-out: Share of Pegasus detected in the brain): < 0.01
half-life ([3]; both sexes, C57BL/6, mouse, brain, 50 mg/kg, 50 mg/kg ip, read-out: Brain T1/2 (elimination) (converted)): 3.77 h
half-life ([3]; both sexes, C57BL/6, mouse, brain, 100 mg/kg, 100 mg/kg ip, read-out: Brain T1/2 (elimination) (converted)): 1.82 h
AUC(0-inf) ([3]; both sexes, C57BL/6, mouse, brain, 100 mg/kg, across 50 and 100 mg/kg i.p., read-out: AUC0-inf in the brain): 86.6 to 223 ng·h/mL
half-life ([3]; both sexes, C57BL/6, mouse, brain, 100 mg/kg, across 50 and 100 mg/kg i.p., read-out: Elimination half time T1/2 in the brain): 1.82 to 3.77 h
Kp ([3]; both sexes, C57BL/6, mouse, brain/serum, 50 mg/kg ip, read-out: Ratio of Brain/Serum (%)): 0.007
Kp ([3]; both sexes, C57BL/6, mouse, brain/serum, 100 mg/kg ip, read-out: Ratio of Brain/Serum (%)): 0.006
Kp ([3]; both sexes, C57BL/6, mouse, brain/serum, across 50 and 100 mg/kg i.p., read-out: Percentage ratio of brain/serum): 0.006 to 0.007
Tmax ([3]; both sexes, C57BL/6, mouse, brain, 50 mg/kg ip, read-out: Brain Tmax): 2 h
Tmax ([3]; both sexes, C57BL/6, mouse, brain, 100 mg/kg ip, read-out: Brain Tmax): 1.5 h
AUC(0-inf) ([3]; both sexes, C57BL/6, mouse, serum, 50 mg/kg, 50 mg/kg ip, read-out: Serum AUC (0-inf)): 17200 ng·h/mL
half-life ([3]; both sexes, C57BL/6, mouse, serum, 50 mg/kg, 50 mg/kg ip, read-out: Serum T1/2 (elimination) (converted)): 4.11 h
AUC(0-inf) ([3]; both sexes, C57BL/6, mouse, serum, 100 mg/kg, 100 mg/kg ip, read-out: Serum AUC (0-inf)): 49100 ng·h/mL
half-life ([3]; both sexes, C57BL/6, mouse, serum, 100 mg/kg, 100 mg/kg ip, read-out: Serum T1/2 (elimination) (converted)): 4.74 h
AUC(0-inf) ([3]; both sexes, C57BL/6, mouse, serum, 100 mg/kg, across 50 and 100 mg/kg i.p., read-out: AUC0-inf in the serum): 17200 to 49100 ng·h/mL
half-life ([3]; both sexes, C57BL/6, mouse, serum, 100 mg/kg, across 50 and 100 mg/kg i.p., read-out: Elimination half time T1/2 in the serum): 4.11 to 4.74 h
Cmax ([3]; both sexes, C57BL/6, mouse, serum, 50 mg/kg ip, read-out: Serum Cmax): 7.97 µM
Cmax ([3]; both sexes, C57BL/6, mouse, serum, 50 mg/kg ip, read-out: Serum Cmax (ng/ml)): 5190 ng/mL
Tmax ([3]; both sexes, C57BL/6, mouse, serum, 50 mg/kg ip, read-out: Serum Tmax): 2 h
Cmax ([3]; both sexes, C57BL/6, mouse, serum, 100 mg/kg ip, read-out: Serum Cmax): 32.7 µM
Cmax ([3]; both sexes, C57BL/6, mouse, serum, 100 mg/kg ip, read-out: Serum Cmax (ng/ml)): 21300 ng/mL
Tmax ([3]; both sexes, C57BL/6, mouse, serum, 100 mg/kg ip, read-out: Serum Tmax): 2.5 h
Concentration of CNS alpha-synuclein (ELISA) (human alpha-synuclein [4]): reduced
